Results on 2 compounds are retold here after patent US10807951B2, “mTORC1 modulators” (THE REGENTS OF THE UNIVERSITY OF CALIFORNIA, priority 2017, dated 2020).

Molecules are shown by their SMILES.

The conditions of data set [1]: in vivo; cited from earlier work.
The target in a further data set is LAMTOR5 (Homo sapiens, UniProt O43504). The experiment in a line: Rhodamine labeling with alkyne probe on purified Lamtor-Rag complexes. The format is binding. Particulars: preliminary experiments. The source says:
FIGS. 8A-8B. (FIG. 8A) Structures of CC 2-11 and CC 1-44. CC 2-11 bears an alkyne group on a separate ring from the cysteine-reactive warhead. The presence of the alkyne group enables us to directly label the modified target protein (e.g. Lamtor5) with biotin or rhodamine groups, either in gels or in complex proteomes. […] Thus, CC 2-11 allows precise mapping of the target cysteines as well as accurate identification of the off-targets.
We also synthesized a CC 1-44 derivative, named CC 2-11, which bears an alkyne group on a separate ring from the cysteine-reactive warhead (FIG. 8A). The presence of the alkyne group enables us to directly label the modified target protein (e.g. Lamtor5) with biotin or rhodamine groups, either in gels or in complex proteomes. […] Thus, CC 2-11 will allow precise mapping of the target cysteines as well as accurate identification of the off-targets.

In the case of `CO[C@H]1C[C@@H]2CC[C@@H](C)[C@@](O)(O2)C(=O)C(=O)N2CCCC[C@H]2C(=O)O[C@H]([C@H](C)C[C@@H]2CC[C@@H](O)[C@H](OC)C2)CC(=O)[C@H](C)/C=C(\C)[C@@H](O)[C@@H](OC)C(=O)[C@H](C)C[C@H](C)/C=C/C=C/C=C/1C` [rapamycin], in data set [1], the bioavailability result is recorded as “good”.

With `C#Cc1cc(COc2cccc3c2ccn3C(=O)C=C)cc(C(F)(F)F)c1` [CC 2-11], the “direct rhodamine labeling of target protein by alkyne probe” value on LAMTOR5 is “enables rhodamine labeling of a 28 KDa band corresponding to Lamtor5”.
